The half-life is how long it takes for the measured level to halve. A higher half-life goes with slow loss.

The test system of series [1] is H460 subcutaneous lung cancer. The series can be described thus: Anti-tumor effect in mice bearing H460 subcutaneous lung cancer. In kind it is in vivo. The text has this: The establishment of a subcutaneous H460 tumor-bearing mice model was the same as that in Example 33.
For series [2], the system named is H460 human lung cancer cells. The experiment in a line: MTT assay, toxicity of drug-loaded vesicles on H460 cells. In kind it is cell-based. To be noted: NCI-H460, 4 h co-cultivation, then 44 h in fresh medium. As for the experimental part:
MTT assay was used to test the toxicity of the polymeric vesicles on H460 human lung cancer cells. […] After co-cultivation for 4 hours, the samples were aspirated and replaced with fresh medium to continue incubation for 44 hours. The subsequent addition of MTT, treatment, and measurement of absorbance were the same as those in Example 26.
For orientation: Tetrazolium dyes change colour on reduction, which living cells bring about.

In series [3] the test system is orthotopic A549 lung cancer (A549-Luc). The note with it: for bioluminescence intensity of the lung tumor / tumor growth: i.v. on Days 0, 4, 8 and 12, within 16 days; for survival of the mice (all survived / all dead): orthotopic A549.
Procedure: Balb/C nude mice weighing approximately 18 to 20 grams (aged 4 to 6 weeks) were selected for the experiment. 5×10^6 bioluminescent A549 human lung cancer cells (A549-Luc) were directly injected in the lungs. After about 10 days, the mice were observed by an in vivo imaging system for small animals. […] From Day 0 to Day 16, the body weights of the mice were measured every four days. The bioluminescence intensity of the lung tumor in mice was monitored using an in vivo imaging system for small animals. The survival of the mice was observed up to 45 days.
The PTG-loaded cRGD/CLPs, the non-targeted self-crosslinked polymeric vesicle CLPs, Taxol, and PBS were injected into mice, respectively.
Series [4] can be described thus: in vivo. To be noted: Balb/C nude, mouse, iv, 10 mg/kg.
The subject of series [5] is A549 subcutaneous lung cancer. The series can be described thus: Anti-tumor effect in mice bearing A549 subcutaneous lung cancer. It is filed as in vivo. The note with it: i.v. on Day 0, 4, 8 and 12, DOX 10 mg/kg; Day 18. As for the experimental part:
The volumes of the tumor were measured by a vernier caliper. The tumor volume was calculated as: V=(L×W×H)/2 (wherein L was the tumor length, W was the tumor width, and H was the tumor thickness). The survival of the mice were observed up to 45 days.
The establishment of a subcutaneous A549 tumor-bearing mice model, administration via tail vein, and data collection were the same as those in Example 37.

Series [6] deals with A549 lung cancer cells. The experiment in a line: MTT assay, toxicity of drug-loaded vesicles on A549 cells. To be noted: Homo sapiens, A549, read-out: half inhibition concentration (IC50) for A549 cells. It is filed as cell-based.
Procedure: The toxicity of the polymeric vesicles on A549 cells was tested by MTT assay. […] The concentrations of DOX.HCl were 0.01, 0.1, 0.5, 1, 5, 10, 20 and 40 μg/mL, respectively. The content of the targeting molecules ranged from 10%, 20% to 30%; the non-targeted drug-loaded self-crosslinked polymeric vesicle group and the free DOX.HCl group were used as control groups. After co-cultivation for 4 hours, the samples were aspirated and replaced with fresh medium to continue incubation for 44 hours.

Counter-ions that a name gives are not always drawn.

With `CCc1c2c(nc3ccc(OC(=O)N4CCC(N5CCCCC5)CC4)cc13)-c1cc3c(c(=O)n1C2)COC(=O)[C@]3(O)CC` [CPT.HCl, irinotecan hydrochloride], the body weight decrease in series [1] (Day 10) was 18%; in series [3] (Day 3), 21%. Moreover, the tumor growth result in series [1] (i.v., CPT.HCl, Day 18) is given as “could also inhibit the growth of tumor”. Further, the “survival of the mice (all survived / all dead)” value in series [1] (subcutaneous H460) is at most 28 days; in series [3], at most 34 days. In series [2], this compound yielded an IC50 of 3.09 µg/mL. The “bioluminescence intensity of the lung tumor / tumor growth” value in series [3] is listed as “could also inhibit the growth of tumor”.

On to `CC(=O)O[C@H]1C(=O)[C@@]2(C)[C@H]([C@H](OC(=O)c3ccccc3)[C@]3(O)C[C@H](OC(=O)[C@H](O)[C@@H](NC(=O)c4ccccc4)c4ccccc4)C(C)=C1C3(C)C)[C@]1(OC(C)=O)CO[C@@H]1C[C@@H]2O` [PTX, paclitaxel], for which, in series [3], the “bioluminescence intensity of the lung tumor / tumor growth” value is listed as “could also inhibit the growth of tumor” and the “survival of the mice (all survived / all dead)” value is at most 29 days.

In the case of `COc1cccc2c1C(=O)c1c(O)c3c(c(O)c1C2=O)C[C@@](O)(C(=O)CO)C[C@@H]3O[C@H]1C[C@H](N)[C@H](O)[C@H](C)O1` [DOX.HCl, doxorubicin hydrochloride], the half-life in series [4] was 16.2 min. Moreover, the tumor growth result in series [5] was “could also inhibit the growth of tumor”. The IC50 in series [6] stood at 4.89 µg/mL. In addition, in series [3], the “bioluminescence intensity of the lung tumor / tumor growth” value is reported as “could also inhibit the growth of tumor” and the “survival of the mice (all survived / all dead)” value is at most 30 days.
